The text below walks through data of PMC13064039, “Exploring the binding interaction of rupatadine with bovine serum albumin using multi-spectroscopic and molecular modeling approaches” (BMC Chemistry, 2026).

On the set-up of data set [1]: method as in PMID 23160091. The note with it: cited from earlier work.
For data set [2], the system named is ovarian cancer cells (platelet-activating factor receptor). The arrangement: method as in PMID 34571986. To be noted: in vitro; targets the platelet-activating factor receptor; cited from earlier work.
In data set [3] the target is T1, bovine serum albumin (BSA) (Bos taurus, UniProt P02769). Put plainly: FT-IR spectroscopy of BSA with and without RUPA. The note with it: BSA 2 µM + RUPA 40 µM, pH 7.4, 303 K; free BSA 1646.
Data set [4] addresses T1, bovine serum albumin (BSA). Put plainly: Fluorescence quenching of BSA by RUPA (Stern-Volmer, modified Stern-Volmer, van't Hoff analysis). It counts as binding. The note with it: for Ksv (Stern-Volmer quenching constant): BSA 2 µM, RUPA 0-100 µM. Here is the method: The fluorescence data were corrected for the inner filter effect (IFE) according to the Lakowicz method to ensure that the obtained binding parameters were not impacted by absorption artifacts.
To account for the possible influence of inner filter effects (IFE), the fluorescence intensities were corrected using the following formula (Eq. 1): 1
The process of fluorescence quenching was determined using the Stern-Volmer equation (Eq. 2): 2
The KSV and Kq values were determined by the graph of F0/F against [Q]
Stoichiometric analysis is used to define the various equilibria for a macromolecule’s binding of a ligand by binding sites (n). The number of binding sites (n) and the binding constant (Kb) were calculated using the modified Stern–Volmer equation (Eq. 3). 3
The thermodynamic characteristics of the binding reaction serve as the primary evidence for the binding force. Hydrogen bonds, hydrophobic forces, electrostatic interactions, van der Waals interactions, and other binding forces could all be present between small molecules and biomacromolecules. The temperature dependence of the binding constant was thus measured for this purpose at three distinct temperatures: 303, 310, and 318 K (Fig. 4).
The Gibbs–Helmholtz equation provided below was used to assess the free energy change (ΔG) value (Eq. 5).

Data set [5] has as its target T1, bovine serum albumin (BSA). Put plainly: Synchronous fluorescence of BSA with RUPA. Format: binding. To be noted: RUPA 0-100 µM, BSA 2 µM, 303 K. The source says: Using synchronous fluorescence, the influence of the ligand on the protein has been thoroughly investigated. The distinctive details regarding the protein’s Tyr and Trp residues can be gained by fixing the scanning interval (∆λ) between the excitation and emission wavelengths at 15 and 60 nm, respectively.

Data set [6] addresses T1, bovine serum albumin (BSA). Put plainly: Competitive binding analysis using site probes (phenylbutazone site I, diazepam site II). The note with it: site marker competition. Here is the method:
Phenylbutazone and diazepam are the site probes for sites Ⅰ and Ⅱ, respectively. The BSA and site probe concentrations in this experiment were maintained at 2 µM and 10 µM, respectively. Rupatadine concentrations ranged from 10 to 100 µM. After excitation at 279 nm, fluorescence intensity measurements were made at 341 nm. At 303 K, measurements were made.

Molecules are shown by their SMILES.

T1 sequence (P02769 25-607): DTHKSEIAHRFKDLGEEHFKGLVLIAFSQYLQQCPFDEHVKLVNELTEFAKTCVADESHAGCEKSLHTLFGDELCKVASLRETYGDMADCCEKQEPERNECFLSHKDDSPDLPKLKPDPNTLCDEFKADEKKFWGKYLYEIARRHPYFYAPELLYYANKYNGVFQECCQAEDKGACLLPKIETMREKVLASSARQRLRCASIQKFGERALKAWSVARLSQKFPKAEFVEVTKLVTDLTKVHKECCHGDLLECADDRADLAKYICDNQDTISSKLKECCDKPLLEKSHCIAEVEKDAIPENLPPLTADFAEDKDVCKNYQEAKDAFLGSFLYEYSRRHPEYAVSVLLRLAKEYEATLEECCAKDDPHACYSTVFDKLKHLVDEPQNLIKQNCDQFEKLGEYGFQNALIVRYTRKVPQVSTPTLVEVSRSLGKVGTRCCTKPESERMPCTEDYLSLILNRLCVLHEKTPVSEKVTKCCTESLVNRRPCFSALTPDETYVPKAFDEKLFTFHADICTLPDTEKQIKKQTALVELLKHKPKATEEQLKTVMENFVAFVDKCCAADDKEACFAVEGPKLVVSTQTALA

For the molecule `Cc1cncc(CN2CCC(=C3c4ccc(Cl)cc4CCc4cccnc43)CC2)c1` [RUPA, 13-chloro-2-[1-[(5-methylpyridin-3-yl)methyl]piperidin-4-ylidene]−4-azatricyclo [9.4.0.03,8] pentadeca-1(11),3(8),4,6,12,14-hexaene], the “attached to plasma proteins” value in data set [1] was “approximately 99%”. Moreover, the “effect on ovarian cancer cell proliferation and migration” value in data set [2] was “prevent ovarian cancer cells from proliferating and migrating”. In addition, in data set [3], the “amide I peak location of BSA following the RUPA reaction” value came to 1642 cm^− 1. Further, the “n (number of binding sites)” value in data set [4] (303 K) stood at 0.57; in data set [4] (310 K) it was 0.83; in data set [4] (318 K), 1.06. The “Ksv (Stern-Volmer quenching constant)” value was 1.07 × 10^4 L.mol^− 1 in data set [4] (303 K, pH 7.4); 0.82 × 10^4 L.mol^− 1 in data set [4] (310 K, pH 7.4); 0.48 × 10^4 L.mol^− 1 in data set [4] (318 K, pH 7.4). Moreover, in data set [4] (310 K, τ0 = 10^-8 s), the “Kq (quenching rate constant)” value is given as 0.82 × 10^12 L.mol^− 1.s^− 1. Moreover, the “∆G^o (Gibbs free energy change)” value in data set [4] (pH 7.4, 303 K) was -3.4823 kcal/mol; in data set [4] (pH 7.4, 318 K), -5.2287 kcal/mol. The “∆H^o (enthalpy change)” value in data set [4] (pH 7.4, van't Hoff, 303-318 K) was determined as 31.7935 kcal/mol. For the same molecule, the “∆S^o (entropy change)” value in data set [4] (pH 7.4, van't Hoff, 303-318 K) is 0.487 KJ mol^− 1 K^− 1. Further, in data set [4] (within the examined temperature range), the “enthalpy change (ΔH)” value was 133.024 kJ mol^− 1. Besides, in data set [5] (∆λ = 15 nm (Tyr)), the “shift in synchronous fluorescence” value was “no shift”. For the same molecule, the “red shift of ∆λmax in synchronous fluorescence” value in data set [5] (∆λ = 60 nm (Trp)) is recorded as “about 2 nm”. Further, the “binding site of RUPA on BSA” value in data set [6] is “site I”.
